Laboratory results reported in article PMC6897945, “CytA, a reductase in the cytorhodin biosynthesis pathway, inactivates anthracycline drugs in Streptomyces” (Communications Biology, 2019).
Like-named read-outs stand apart in the source and are kept apart here.

Experiments:
[1] = test system: HeLa human cervical carcinoma cell line; assay: Cytotoxic activity, MTT method; format: cell-based; conditions: read-out: Cytotoxic activities IC50, HeLa
From the text: (§1) All data were obtained in triplicate and are presented as means.

[2] = test system: A549 human lung cancer cell line; assay: Cytotoxic activity, MTT method; format: cell-based; conditions: A549, read-out: Cytotoxic activities IC50, A549
From the text: as §1

[3] = test system: MCF-7 human breast adenocarcinoma cell line; assay: Cytotoxic activity, MTT method; format: cell-based; conditions: MCF7, read-out: Cytotoxic activities IC50, MCF-7
From the text: as §1

[4] = Cytotoxic activity, MTT method; format: cell-based; conditions: human
From the text: as §1

[5] = test system: HepG2 human hepatocellular carcinoma cell line; assay: Cytotoxic activity, MTT method; format: cell-based; conditions: HepG2, read-out: Cytotoxic activities IC50, HepG2
From the text: as §1

[6] = test system: MDA-MB-231 human triple negative breast adenocarcinoma cell line; assay: Cytotoxic activity, MTT method; format: cell-based; conditions: MDA-MB-231, read-out: Cytotoxic activities IC50, MDA-MB-231
From the text: as §1

CytA = assay: Enzyme kinetics of CytA (formation of deglycosylation products, anaerobic); format: biochemical, Streptomyces sp. SCSIO 1666; conditions: for fold more efficient CytA processing than for 22–26: relative to clinical anthracyclines 22–26; for Km / kcat: substrate of CytA, 0.5 μM CytA, 20 μM NADH, anaerobic
Experimental: Enzymatic reactions were carried out under anaerobic conditions in an anaerobic workstation (Don Whitley Scientific A45) containing a gas phase of N2/H2/CO2 (80:10: 10%, by vol.). ^1H, ^13C, and 2D (COSY, HMQC, HMBC and NOESY) NMR spectra were recorded at 25 °C with an Avance 700 MHz spectrometer instruments (Bruker). High-resolution mass spectra were obtained with a Maxis quadrupole-time-of-flight mass spectrometer (Bruker).
To validate the in vitro biochemical activities of CytA, we overexpressed and purified this enzyme as a soluble N-terminally His6-tagged protein from E. coli (Fig. 2a). Tris-Cl buffer was made O2 free by boiling, followed by cooling under N2 flow; NADH stock solution (dissolved in Tris-Cl), substrate stock solution (dissolved in DMSO), and enzyme solution (dissolved in Tris-Cl supplemented with 10% glycerin) were subjected to O2 eliminating process in the anaerobic workstations for at least two cycles (40 min for one cycle). CytA enzymatic activity was tested in 50 μL volume containing 50 mM Tris-Cl (pH 8.0), 25 μM substrate, 0.5 μM CytA, and 20 μM NADH, at 37 °C for 30 min. The reaction was quenched with the addition to 2 volumes MeOH. After centrifugation to remove protein, supernatants were analyzed with Agilent HPLC equipment using a Phenomenex Prodigy ODS column S5 (150 × 4.60 mm, 5 μ) and UV detection at 254 and 500 nm. Samples were eluted with a gradient elution of phase A containing 0.1% TFA in ddH2O and phase B containing 100% acetonitrile, at a flow rate of 1 mL/min.
Kinetic analyses of CytA with putative substrates 6–10, daunorubicin, doxorubicin, idarubicin, epirubicin and pirarubicin, involved a reaction volume of 20 μL consisting of 50 mM Tris-Cl (pH 8.0), 0.5 μM CytA, 20 μM NADH, […]
All assays were performed in triplicate and Km and Vmax values were calculated on the basis of curve fitting to the Michaelis-Menten equation: v = Vmax *[S]/(Km + [S]) (Supplementary Fig. 7).
For kinetics of CytA, Origin 9.0 (OriginLab Co.) was used to analyze on the basis of curve fitting to the Michaelis-Menten equation. Experiments were performed in triplicate independently. For antibacterial activity, experiments were performed in triplicate using 96-well plates.

MDA-MB-468 cells = conditions: read-out: IC50 against MDA-MB-468 cells; cited from earlier work
[7] = Huvec-12 normal cell line, read-out: Cytotoxic activities IC50, Huvec-12
[8] = L02 normal cell line, read-out: Cytotoxic activities IC50, L02

Work on CC[C@@]1(O)C[C@H](O[C@H]2C[C@H](N(C)C)[C@H](O[C@H]3C[C@H](O)[C@H](O[C@H]4CC[C@H](O)[C@H](C)O4)[C@H](C)O3)[C@H](C)O2)c2c(O)c3c(c(O)c2[C@H]1O[C@H]1C[C@H](N(C)C)[C@H](O[C@H]2C[C@H](O)[C@H](O[C@H]4CC[C@H](O)[C@H](C)O4)[C@H](C)O2)[C@H](C)O1)C(=O)c1cccc(O)c1C3=O [Compound 7, cosmomycin D] yielded an IC50 [1] of 110 nM, an IC50 [2] of 19 nM and an IC50 [3] of 510 nM. It also gave an IC50 [4, 7] of 300 nM, an IC50 [4, 8] of 130 nM and an IC50 [5] of 31 nM. For the same molecule, the IC50 [6] was 660 nM, the “fold more efficient CytA processing than for 22–26” value (CytA) was 2–3 fold and the Km (CytA) was 17.9 µM. It also gave a kcat (CytA) of 0.0132 s⁻¹.

For CC[C@@]1(O)C[C@H](O[C@H]2C[C@H](N(C)C)[C@@H](O[C@H]3C[C@H](O)[C@@H](O[C@H]4CC[C@H](O)[C@H](C)O4)[C@H](C)O3)[C@H](C)O2)c2c(O)c3c(c(O)c2[C@H]1O[C@H]1C[C@H](N(C)C)[C@@H](O[C@H]2CC[C@H](O[C@H]4CC[C@H](O)[C@H](C)O4)[C@H](C)O2)[C@H](C)O1)C(=O)c1cccc(O)c1C3=O [Compound 6, cosmomycin C], the IC50 [1] was 17 nM, the IC50 [2] was 35 nM and the IC50 [3] was 270 nM. For the same molecule, the IC50 [4, 7] was 290 nM, the IC50 [4, 8] was 100 nM and the IC50 [5] was 24 nM. For the same molecule, the IC50 [6] was 640 nM, the “fold more efficient CytA processing than for 22–26” value (CytA) was 2–3 fold and the Km (CytA) was 14.3 µM. The kcat (CytA) was 0.0118 s⁻¹ and the IC50 (MDA-MB-468 cells) was 210 nM.
